Laboratory results: PubChem BioAssay AID1259408 (Genetic Toxicology Data Bank (GENE-TOX), 2018)
Activity calls are given as the source filed them. The rule behind the calls is not given here.

Test system: GENE-TOX genotoxicity assays, various organisms and cells
Experiment: GENE-TOX mutagenicity studies
Settings: for call: Assay Type: In vivo carcinogenicity studies
[1] = Species/Cell Type: Escherichia coli polA (W3119 vs P3478), Assay Type: Rec-assay, DNA effects (bacterial DNA repair), Assay Code: RE1+, Evaluation Type: Evaluation A (Pre-1980)

For `COP(=O)(OC)OC=C(Cl)Cl`, the mutagenic call (Species/Cell Type: Allium cepa, Assay Type: Chromosome aberrations, Assay Code: ALC+D, Dose Response: With dose response, Evaluation Type: Evaluation A (Pre-1980)) was “active; positive”, the mutagenic call (Species/Cell Type: Bacillus subtilis (H17 vs M45), Assay Type: Rec-assay, spot test, DNA effects (bacterial DNA repair), Assay Code: REW+, Evaluation Type: Evaluation A (Pre-1980)) was “active; positive” and the mutagenic call (Species/Cell Type: Drosophila melanogaster, Assay Type: Sex-linked recessive lethal gene mutation, Assay Code: SRL-, Evaluation Type: Evaluation A (Pre-1980)) was “inactive; negative”. For the same compound, the mutagenic call (Species/Cell Type: Escherichia coli WP2, Assay Type: Tryptophan reverse gene mutation, Assay Code: WP2+, Evaluation Type: Evaluation A (Pre-1980)) was “active; positive”, the mutagenic call (Species/Cell Type: Escherichia coli WP2 UVRA, Assay Type: Tryptophan reverse gene mutation, Assay Code: WPU+, Evaluation Type: Evaluation A (Pre-1980)) was “active; positive” and the mutagenic call [1] was “active; positive”. For the same compound, the mutagenic call (Species/Cell Type: Human lymphocytes, Assay Type: Sister-chromatid exchange (SCE) in vitro, Assay Code: SCL-, Evaluation Type: Evaluation A (Pre-1980)) was “inactive; negative”, the mutagenic call (Species/Cell Type: Human lymphocytes, Assay Type: Sister-chromatid exchange (SCE) in vitro, Assay Code: SCLT, Evaluation Type: Evaluation B (Post-1980)) was “no conclusion” and the mutagenic call (Species/Cell Type: Human, Assay Type: Sister-chromatid exchange (SCE) in vitro, Assay Code: SC1-, Evaluation Type: Evaluation A (Pre-1980)) was “inactive; negative”. The mutagenic call (Species/Cell Type: Human, Assay Type: Sister-chromatid exchange (SCE) in vitro, Assay Code: SC1T, Evaluation Type: Evaluation B (Post-1980)) was “no conclusion”, the mutagenic call (Species/Cell Type: Mammalian germ cells, Sex: Male, Assay Type: Chromosome aberrations in vivo, Assay Code: CY9-, Evaluation Type: Evaluation A (Pre-1980)) was “inactive; negative” and the mutagenic call (Species/Cell Type: Mammalian polychromatic erythrocytes, Assay Type: Micronucleus test, chromosome aberrations, Assay Code: MNTT, Evaluation Type: Evaluation B (Post-1980)) was “no conclusion”. For the same compound, the mutagenic call (Species/Cell Type: Mouse, Sex: Male, Assay Type: Sperm morphology, Assay Code: SPIT, Evaluation Type: Evaluation A (Pre-1980)) was “no conclusion”, the mutagenic call (Species/Cell Type: Nonhuman bone marrow, Assay Type: Chromosome aberrations, in vivo, Assay Code: CY#-, Evaluation Type: Evaluation A (Pre-1980)) was “inactive; negative” and the call (Species/Cell Type: Nonhuman, Assay Code: CCGT, Evaluation Type: Evaluation A (Pre-1980)) was “no conclusion”. The mutagenic call (Species/Cell Type: Nonhuman, Assay Type: Sister-chromatid exchange (SCE) in vitro, Assay Code: SC2+D, Dose Response: With dose response, Evaluation Type: Evaluation B (Post-1980)) was “active; positive”, the mutagenic call (Species/Cell Type: Nonhuman, Assay Type: Sister-chromatid exchange (SCE) in vivo, Assay Code: SC3-, Evaluation Type: Evaluation B (Post-1980)) was “inactive; negative” and the mutagenic call (Species/Cell Type: Rodents, Sex: Male, Assay Type: Dominant lethal test, Assay Code: DLTT, Evaluation Type: Evaluation A (Pre-1980)) was “no conclusion”. The mutagenic call (Species/Cell Type: Saccharomyces cerevisiae, Assay Type: Mitotic recombination or gene conversion, Assay Code: YEC+, Evaluation Type: Evaluation A (Pre-1980)) was “active; positive”, the mutagenic call (Species/Cell Type: Salmonella typhimurium (one or more of the five standard strains: TA98, TA100, TA1535, TA1537, and TA1538), Assay Type: Histidine reverse gene mutation, Ames assay, Assay Code: SAL+, Evaluation Type: Evaluation A (Pre-1980)) was “active; positive” and the mutagenic call (Species/Cell Type: Salmonella typhimurium, Serratia marcesens, Saccharomyces cerevisiae, Assay Type: Forward and reverse gene mutation, mitotic recombination and gene conversion, DNA effects, host-mediated assay, Assay Code: HM5-, Evaluation Type: Evaluation A (Pre-1980)) was “inactive; negative”.
`O=C1c2cc(O)cc(O)c2C(=O)c2c1cc1c(c2O)[C@@H]2C=CO[C@@H]2O1` was tested, and the mutagenic call (Species/Cell Type: Salmonella typhimurium (one or more of the five standard strains: TA98, TA100, TA1535, TA1537, and TA1538), Assay Type: Histidine reverse gene mutation, Ames assay, Assay Code: SAL+*, Activation: With metabolic activation, Evaluation Type: Evaluation A (Pre-1980)) was “active; positive”.
In the case of `COS(=O)(=O)OC`, the mutagenic call (Species/Cell Type: Arabidopsis species, Assay Type: Gene mutation, Assay Code: ARM+, Evaluation Type: Evaluation A (Pre-1980)) is reported as “active; positive”, the mutagenic call (Species/Cell Type: Aspergillus nidulans, Assay Type: Forward gene mutation, Assay Code: ASF+, Evaluation Type: Evaluation A (Pre-1980)) is reported as “active; positive” and the mutagenic call (Species/Cell Type: Chinese hamster ovary (CHO) cells, Assay Type: Forward gene mutation at the HPRT locus, Assay Code: CHO+D, Dose Response: With dose response, Evaluation Type: Evaluation A (Pre-1980)) is reported as “active; positive”. For the same compound, the mutagenic call (Species/Cell Type: Drosophila melanogaster, Assay Type: Aneuploidy, partial sex chromosome loss, chromosome aberrations, Assay Code: DAP-M, Evaluation Type: Evaluation A (Pre-1980)) was “inactive; negative”, the mutagenic call (Species/Cell Type: Drosophila melanogaster, Assay Type: Aneuploidy, whole sex chromosome loss, chromosome aberrations, Assay Code: DAC+M, Evaluation Type: Evaluation A (Pre-1980)) was “active; positive” and the mutagenic call (Species/Cell Type: Drosophila melanogaster, Assay Type: Sex-linked recessive lethal gene mutation, Assay Code: SRL+, Evaluation Type: Evaluation A (Pre-1980)) was “active; positive”. The mutagenic call (Species/Cell Type: Drosophila melanogaster, Sex: Male, Assay Type: Heritable translocation test, chromosome aberrations, Assay Code: DHT+, Evaluation Type: Evaluation A (Pre-1980)) was “active; positive”, the mutagenic call [1] was “active; positive” and the mutagenic call (Species/Cell Type: Human, Assay Type: Sister-chromatid exchange (SCE) in vitro, Assay Code: SC1+D, Dose Response: With dose response, Evaluation Type: Evaluation A (Pre-1980)) was “active; positive”. The mutagenic call (Species/Cell Type: Nonhuman, Assay Type: Chromosome aberrations in vitro, Assay Code: CY&+, Evaluation Type: Evaluation A (Pre-1980)) was “active; positive”, the call (Species/Cell Type: Nonhuman, Assay Code: CCG+, Evaluation Type: Evaluation A (Pre-1980)) was “active; positive” and the mutagenic call (Species/Cell Type: Nonhuman, Assay Type: Sister-chromatid exchange (SCE) in vitro, Assay Code: SC2+, Evaluation Type: Evaluation A (Pre-1980)) was “active; positive”. For the same compound, the mutagenic call (Species/Cell Type: Saccharomyces cerevisiae, Assay Type: Reverse gene mutation, Assay Code: YER+, Evaluation Type: Evaluation A (Pre-1980)) was “active; positive”, the mutagenic call (Species/Cell Type: Salmonella typhimurium (one or more of the five standard strains: TA98, TA100, TA1535, TA1537, and TA1538), Assay Type: Histidine reverse gene mutation, Ames assay, Assay Code: SALT, Evaluation Type: Evaluation A (Pre-1980)) was “no conclusion” and the mutagenic call (Species/Cell Type: Salmonella typhimurium, Assay Type: Forward and reverse gene mutation, host-mediated assay, Assay Code: HMA+, Evaluation Type: Evaluation A (Pre-1980)) was “active; positive”. For the same compound, the mutagenic call (Species/Cell Type: Schizosaccharomyces pombe, Assay Type: Reverse gene mutation, Assay Code: YEZ+, Evaluation Type: Evaluation A (Pre-1980)) was “active; positive”.
